Data set [1] concerns lesions of the gastric mucosa. Description: Gastric lesions induced by electrostimulation of immobilised rats. Type of data set: in vivo. The method, then: (§1) The models used gastric ulcers induced by
a) Electrostimulation of immobilised rats for 3 hours;
(§2) The compounds were administered intraperitoneally at a dose of 20 mg/kg; in the cryogenic ulcer model compound 2 was administered either intraperitoneally (10 mg/kg) or orally (20 mg/kg twice daily, ie. a total of 40 mg/kg/day) and was compared to orally-administered gastrocepin (1 mg/kg twice daily, ie. a total of 2 mg/kg/day).

Data set [2] relates to cryogenic ulcer of the gastric mucosa. Briefly: Cryogenic gastric ulcer in rats. In kind it is in vivo. Conditions: healing effect over the course of 14 days; regimen not printed in the row. The method, then: as §1
c) Ulcer created by local wounding with a cryogenic probe using a method similar to that described above for mouth ulcers.
as §2

The subject of data set [3] is lesions of the gastric mucosa. Description: Gastric lesions induced by immobilization and hypothermia. In kind it is in vivo, rats. Set-up: % reduction of degree of ulceration / % reduction of ulcerated area: concentration or dose not given beside the values. Conditions: Protective effect, 30 minutes before the test. The method, then:
as §1
b) Immobilization and hypothermia (induced by water cooling);
as §2

The test system of data set [4] is acute Con A-induced inflammation. Description: Acute Con A-induced inflammation (paw oedema) in mice. In kind it is in vivo. The method, then: Saline solution was similarly administered to the control animals. There were 10 mice in each group. After one hour, con A at a dose of 100 mkg/20 g of body weight was administered by sub-plantar injection into the plantar aponeurosis of the left paws of mice of both the experimental and control groups. The same amount of saline splution was injected into the contralateral paws. After one hour, the mice were killed and the experimental and control paws were weighed to assess the reaction index of the inflammation in the ankle-joint (Liubimov et al, 1999).
The anti-inflammatory effect of Compound 2 and Compound 7 was compared in male mice weighing 18-22 g, using the model described in Example 9. The ED50, i.e. the dose reducing paw ooedema by 50% one hour after injection of Concanavalin A, was calculated.

The subject of data set [5] is white male mice. To be noted: for LD50: intraperitoneal injection, white male mice, 14 days observation.
Description: The acute toxicity of 1,3-dialkyl-4,5-bis (N-methylcarbamoyl)imidazolium salts was assessed following intraperitoneal injection into 200 white male mice weighing 18 to 20 g. Dead animals were counted daily after the administration of the test substance.
Data set [6] deals with neurogenic dystrophy of the myocardium. Briefly: Myocardial infarction model (electrostimulation), enzymes in rabbit myocardium. Type of data set: in vivo, rabbits. To be noted: 5 mg/kg; 48 hours after electrostimulation. The source says:
The effect of Compound 2 on myocardial tissue in an experimental model of myocardial infarction was examined. In this model system neurogenic dystrophy of the myocardium was induced in rats or rabbits by electrical stimulation of the reflexogenic zone of the aortic arch by implanted electrodes for a period of three hours. […] These changes are accompanied by changes in biochemical indicators such as creatine phosphate, cAMP, and calcium ion concentrations, and changes in the activity of redox enzymes such as succinate dehydrogenase, lactate dehydrogenase, and glucose-6-phosphate dehydrogenase. At a later stage organic lesions of the myocardium such as necrotic and fibrosclerotic foci can be observed.
The effect of Compound 2 given intraperitoneally or orally on these indicators was examined in rats and rabbits following electrostimulation as described above. The effects on levels of creatine phosphate in rat myocardial are shown in Table 19, and the effects on adenosine triphosphatase (ATPase), succinate dehydrogenase and glucose-6-phosphate dehydrogenase rabbit myocardium are shown in Table 20. The effects on cAMP and Ca^++ levels in rabbit myocardial tissue are shown in FIG. 5, and effects on creatine kinase in rabbit myocardium and blood and the levels of creatine phosphate in myocardium are shown in FIG. 6.

Data set [7] relates to cryogenic injuries of the sigmoid colon. Description: Cryogenic damage of the colon, model of ulcerative colitis. Conditions: day 7; oral; Methyl uracil 180 mg/kg, Potassium orotate 50 mg/kg + Riboxin 50 mg/kg, Sulfasalazine 2 g/kg; one figure for the comparison agents. Type of data set: in vivo, rats. The method, then: A model of cryogenic damage of the colon was used in this experiment to simulate ulcerative colitis. Cryogenic injuries of the sigmoid colon of rats were induced by pressing a metal rod of […] in diameter cooled in liquid nitrogen to the serous membrane of the colon for 10 seconds under ether anaesthesia.
Tests were performed on 67 male rats weighing 180-200 g, with 8 animals in each group. Animals were kept in separate cages, with normal food and water ad libitum. The test compounds were administered orally on the second day after the operation, and then daily until healing was complete. Compound 2 or Compound 6 was administered to test animals at a dose of 20-50 mg/kg. The following agents were used for comparison:
The nature of the healing of the ulcer injury was examined morphologically on days 1, 3 and 7. […] The inflammatory process extends beyond the injured area into the adjacent areas, and beyond the peritoneum into fatty connective tissue.

In data set [8] the test system is myocardial infarction. Briefly: Clinical comparison of Compound 2 and Riboxin in subacute myocardial infarction (Example 25). In kind it is in vivo, human. The method, then:
A total of 94 patients were examined; of these:
Conventional therapy as for example 24 was given to 30 patients. Each patient continued to receive the treatment which s/he had been given prior to commencement of the trial. Compound 2 was administered in addition to the previous treatment.
All the patients underwent standard laboratory tests prior to commencement of Compound 2 therapy, 14 days after the beginning of the course and upon completion of the course. The tests included clinical blood analysis; general urine analysis; evaluation of creatinine, bilirubin, transaminase activity, blood sugar, cholesterol and β-lipoproteins, malonic dialdehyde, Schiff bases, zinc, iron, copper, plasma potassium and sodium, prothrombin and fibrinogen; and an ECG examination in dynamics.
All the patients received conventional therapy, i.e. nitrates, anticoagulants and/or hypotensive agents as appropriate.
Combination therapy included Compound 2 (1st group—32 patients) or Riboxin (2nd group—18 patients). The agents were administered at a dose of 200 mg three times per day.

Setting [9] is: Healing effect over the course of 3 days.
Where [10] appears, read: Protective effect, 30 minutes before the test.
The mark [11] stands for this setting: Table 4, 0.005M dose (Compound 2 19 mg/kg, Compound 7 16.4 mg/kg) + Con A.
The mark [12] stands for this setting: Table 4, 0.01M dose (Compound 2 38 mg/kg, Compound 7 32 mg/kg) + Con A.
Setting [13] is: Table 4, 0.015M dose (Compound 2 57 mg/kg, Compound 7 49 mg/kg) + Con A.
Setting [14] is: Table 4, 0.02M dose (Compound 2 76 mg/kg, Compound 7 65.6 mg/kg) + Con A.
[15] abbreviates: 200 mg three times per day plus conventional therapy.

The text below walks through data of patent US20060135587A1, “Method and compounds for promoting healing and reducing inflammation” (priority 2002, published 2006).

One may read the LD50 as the dose expected to kill half of the subjects tested.

Take “1,3-dimethyl-4,5-bis(N-methylcarbamoyl)-imidazolium benzenesulfonate [Compound 1]”: the “% reduction of degree of ulceration” value in data set [1] (setting [9]) is recorded as 18%; in data set [1] (setting [10]) it was 0%; in data set [2] it was 53%; in data set [3], 0%. In addition, the “Average number of lesions per animal” value worked out at 2.8 ± 0.7 in data set [1] (setting [9]); 7.0 ± 0.7 in data set [1] (Protective effect, 30 minutes before the test, 20 mg/kg intraperitoneally); 8.8 ± 1.9 in data set [2]; 10.2 ± 1.2 in data set [3] (20 mg/kg intraperitoneally). In addition, the “% reduction of ulcerated area” value in data set [1] (setting [10]) and in data set [3] was 0% each time. Also, the Area of lesion in data set [1] (setting [10]) is 15.0 ± 4.7; in data set [3], 10.1 ± 1.4. Moreover, the “Reaction index (%)” value in data set [4] (Table 3, 10 mg/kg intra-peritoneally one hour before Con A, male CBA mice) was 14.6 ± 3.5%; in data set [4] (Table 3, 50 mg/kg intra-peritoneally one hour before Con A, male CBA mice) it was 5.3 ± 2.0 %. The toxicity entry in data set [5] is on record as “very low toxicity”. Besides, the LD50 in data set [5] is 1833 mg/kg.
As to “1-methyl-3-ethyl-4,5-bis(N-methylcarbamoyl)-imidazolium 2,4-dihydroxybenzoate [Compound 7]”, the “Paw oedema reduction (%)” value was 60% in data set [4] (setting [11]), 13% in data set [4] (setting [12]), 45% in data set [4] (setting [13]) and 70% in data set [4] (setting [14]). Also, the “Reaction index (%)” value in data set [4] (setting [11]) is reported as 6.73 ± 2.2%; in data set [4] (setting [12]) it was 9.93 ± 2.8%; in data set [4] (setting [13]), 7.2 ± 1.8%; in data set [4] (setting [14]), 4.9 ± 1.7%. Further, the “ED50, dose reducing paw oedema by 50% one hour after injection of Concanavalin A” value in data set [4] (male mice) is reported as 52 mg/kg. In data set [5], the toxicity entry is recorded as “very low toxicity”. The compound also returned a 50% lethal dose (LD50) in data set [5] of 1221 mg/kg.
On to `CCn1cnc(C(=O)NC)c1C(=O)NC` [Ethimizol, 1-ethylimidazole-4,5-dicarboxylic acid bis-N-methylamide, reference compound], for which, in data set [6], the “ATPase” value was found to be 0.43 ± 0.11 µM/mg/min, the “Glucose-6-phosphate dehydrogenase (optical density units)” value came to 5.8 ± 0.7 optical density units and the “Succinate dehydrogenase (optical density units)” value was 39.7 ± 7.4 optical density units.
Regarding `Cc1cc(=O)[nH]c(=O)[nH]1` [Methyl uracil, reference compound], the “animals demonstrating complete healing” value in data set [7] came out at 18%.
As to `OC[C@H]1O[C@@H](n2cnc3c(O)ncnc32)[C@H](O)[C@@H]1O` [Riboxin, inosine, reference compound], in data set [8] (setting [15]), the cholesterol levels stood at 85.5% and the level of prothrombin is 88.7%. For the same compound, the ejection fraction in data set [8] (200 mg three times per day plus conventional therapy, 54.4±1.5% in the absence of the agent) is reported as 56.8±1.3%. Besides, in data set [8] (after therapy, 18-20 before treatment, norm 23), the superoxide dismutase levels came to 21.5 conventional units. The “level of Schiff bases” value in data set [8] (after therapy, 75 before treatment, normal 60) is 62.6 conventional units. Further, the “cases in which cicatrisation took place one or two days earlier” value in data set [8] (patients with repeated myocardial infarct) is 12%.
For the compound `O=C(O)c1cc(/N=N/c2ccc(S(=O)(=O)Nc3ccccn3)cc2)ccc1O` [Sulphasalazine, Sulfasalazine, reference compound], in data set [7], the “animals demonstrating complete healing” value came to 18%.
